Laboratory results taken from patent US20100049117A1, “Microporator for Porating a Biological Membrane and Integrated Permeant Administering System” (PANTEC BIOSOLUTIONS AG, priority 2005, published 2010).

Experiment: Serum concentration of drug over time after application onto microporated skin (FIG. 10a, 10b)
Type: in vivo
Conditions: for period of time of maximal serum concentration: transdermal
Source text: FIG. 10a, 10b show the serum concentration of a drug over time, with the same amount of drug but different permeation surfaces.
The drug is entering the permeation surface by passive diffusion. The amount of drug entering the permeation surface is mainly determined by the permeation surface A(t) over time. Therefore, the serum concentration as a function of time can be determined by an appropriate poration of the skin 1 with an initial microporation.
FIG. 10a to 10b show the administration of the same drug, for example 100 mg acetylsalicylic acid, the drug being arranged on the skin 1 as disclosed in FIG. 3c. Depending on the permeation surface A(t) as a function of time, the level of the serum concentration as well as the time period within which the drug is released, can be predescribed. In FIG. 10a the permeation surface A(t), not shown in detail, is chosen such that the maximal serum concentration is about 25 g/l over a short period of time of about two hours. […] A further advantage is that the same amount of drug, e.g. the same patch, applied onto the skin 1, causes a different serum concentration, depending only on the function of the permeation surface A over time. This allows administering the same drug in different ways. This also allows administering the same drug in an individual way, in that the initial permeation surface is created depending on individual parameters of the person the drug is applied to.

period of time of maximal serum concentration (FIG. 10a, 100 mg): about two
maximal serum concentration (FIG. 10b, 100 mg, fast application (turbo), patch on microporated skin (transdermal)): about 30 g/l
period of time of maximal serum concentration (FIG. 10b, 100 mg, fast application (turbo)): about two
course of serum concentration (oral application OA): heavy fluctuation
course of serum concentration (transdermal application TD): about constant value
SMILES: CC(=O)Oc1ccccc1C(=O)O [acetylsalicylic acid]
